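Briefly, cells in 96-well plates were exposed to five compound concentrations for 48 h, and endpoints were estimated by linear interpolation. At the TGI there is no net growth.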
Key:
Assay in all cases: inhibition of tumour cell growth, NCI panel, 48 h
HOP-18 NSCLC = tested on: HOP-18 NSCLC
NCI-H23 lung = tested on: NCI-H23 lung
IGROV1 ovarian = tested on: IGROV1 ovarian
LXFL 529 NSCLC = tested on: LXFL 529 NSCLC
SNB-78 CNS = tested on: SNB-78 CNS
HCC-2998 colon = tested on: HCC-2998 colon
M19-MEL melanoma = tested on: M19-MEL melanoma
RPMI-8226 leukemia = tested on: RPMI-8226 leukemia
HCT-116 colon = tested on: HCT-116 colon
RXF 393 renal = tested on: RXF 393 renal
HOP-62 NSCLC = tested on: HOP-62 NSCLC
M14 melanoma = tested on: M14 melanoma
EKVX NSCLC = tested on: EKVX NSCLC
KM12 colon = tested on: KM12 colon
SK-OV-3 ovarian = tested on: SK-OV-3 ovarian
SF-539 CNS = tested on: SF-539 CNS
SF-295 CNS = tested on: SF-295 CNS
OVCAR-8 ovarian = tested on: OVCAR-8 ovarian
OVCAR-3 ovarian = tested on: OVCAR-3 ovarian
SK-MEL-2 melanoma = tested on: SK-MEL-2 melanoma
DLD-1 colon = tested on: DLD-1 colon
HOP-92 NSCLC = tested on: HOP-92 NSCLC
LOX IMVI melanoma = tested on: LOX IMVI melanoma
ACHN renal = tested on: ACHN renal
TK-10 renal = tested on: TK-10 renal
DMS 114 small cell lung = tested on: DMS 114 small cell lung
HT29 colon = tested on: HT29 colon
OVCAR-5 ovarian = tested on: OVCAR-5 ovarian
SNB-75 CNS = tested on: SNB-75 CNS
SK-MEL-28 melanoma = tested on: SK-MEL-28 melanoma
KM20L2 colon = tested on: KM20L2 colon
SW-620 colon = tested on: SW-620 colon
HL-60(TB) leukemia = tested on: HL-60(TB) leukemia
NCI-H460 lung = tested on: NCI-H460 lung
SF-268 CNS = tested on: SF-268 CNS
K-562 leukemia = tested on: K-562 leukemia
786-0 renal = tested on: 786-0 renal
SR leukemia = tested on: SR leukemia
MOLT-4 leukemia = tested on: MOLT-4 leukemia
UACC-257 melanoma = tested on: UACC-257 melanoma
SK-MEL-5 melanoma = tested on: SK-MEL-5 melanoma
U251 CNS = tested on: U251 CNS
A498 renal = tested on: A498 renal
CCRF-CEM leukemia = tested on: CCRF-CEM leukemia
HCT-15 colon = tested on: HCT-15 colon
UO-31 renal = tested on: UO-31 renal
UACC-62 melanoma = tested on: UACC-62 melanoma
DMS 273 small cell lung = tested on: DMS 273 small cell lung
OVCAR-4 ovarian = tested on: OVCAR-4 ovarian
SNB-19 CNS = tested on: SNB-19 CNS
CAKI-1 renal = tested on: CAKI-1 renal
NCI-H522 lung = tested on: NCI-H522 lung
MALME-3M melanoma = tested on: MALME-3M melanoma
A549 NSCLC = tested on: A549 NSCLC
COLO 205 colon = tested on: COLO 205 colon
SN12C renal = tested on: SN12C renal
NCI-H226 lung = tested on: NCI-H226 lung
RXF-631 renal = tested on: RXF-631 renal
XF 498 CNS = tested on: XF 498 CNS
DU-145 prostate = tested on: DU-145 prostate
BT-549 breast = tested on: BT-549 breast
MDA-N = tested on: MDA-N
PC-3 prostate = tested on: PC-3 prostate
MDA-MB-435 = tested on: MDA-MB-435
HS 578T breast = tested on: HS 578T breast
T-47D breast = tested on: T-47D breast
MCF7 breast = tested on: MCF7 breast
MDA-MB-231 breast = tested on: MDA-MB-231 breast

O=[N+]([O-])c1cccc(S(=O)(=O)N/N=C/c2cc(I)cc([N+](=O)[O-])c2O)c1
TGI (HOP-18 NSCLC): 78.6 µM | TGI (NCI-H23 lung): 42.4 µM | TGI (IGROV1 ovarian): > 100 µM | TGI (LXFL 529 NSCLC): 48.3 µM | TGI (SNB-78 CNS): 66.4 µM | TGI (HCC-2998 colon): > 100 µM | TGI (M19-MEL melanoma): > 100 µM | TGI (RPMI-8226 leukemia): 86.2 µM | TGI (HCT-116 colon): 71.1 µM | TGI (RXF 393 renal): 56.3 µM | TGI (HOP-62 NSCLC): 57.2 µM | TGI (M14 melanoma): 77 µM | TGI (EKVX NSCLC): 80 µM | TGI (KM12 colon): > 100 µM | TGI (SK-OV-3 ovarian): 73.2 µM | TGI (SF-539 CNS): 48.5 µM | TGI (SF-295 CNS): 98.7 µM | TGI (OVCAR-8 ovarian): 63.2 µM | TGI (OVCAR-3 ovarian): 43.9 µM | TGI (SK-MEL-2 melanoma): 39 µM | TGI (DLD-1 colon): > 100 µM | TGI (HOP-92 NSCLC): 35.1 µM | TGI (LOX IMVI melanoma): 62.3 µM | TGI (ACHN renal): 95.8 µM | TGI (TK-10 renal): 95.2 µM | TGI (DMS 114 small cell lung): 53.8 µM | TGI (HT29 colon): 73.6 µM | TGI (OVCAR-5 ovarian): > 100 µM | TGI (SNB-75 CNS): 67.2 µM | TGI (SK-MEL-28 melanoma): 87.9 µM | TGI (KM20L2 colon): > 100 µM | TGI (SW-620 colon): 58.5 µM | TGI (HL-60(TB) leukemia): 47 µM | TGI (NCI-H460 lung): > 100 µM | TGI (SF-268 CNS): 79.3 µM | TGI (K-562 leukemia): 58.4 µM | TGI (786-0 renal): > 100 µM | TGI (SR leukemia): 60.9 µM | TGI (MOLT-4 leukemia): 81.5 µM | TGI (UACC-257 melanoma): 57 µM | TGI (SK-MEL-5 melanoma): 44 µM | TGI (U251 CNS): 57.8 µM | TGI (A498 renal): > 100 µM | TGI (CCRF-CEM leukemia): 47.9 µM | TGI (HCT-15 colon): 65.5 µM | TGI (UO-31 renal): 67.5 µM | TGI (UACC-62 melanoma): 45.2 µM | TGI (DMS 273 small cell lung): 52.9 µM | TGI (OVCAR-4 ovarian): > 100 µM | TGI (SNB-19 CNS): 65.5 µM | TGI (CAKI-1 renal): 50.9 µM | TGI (NCI-H522 lung): 35.9 µM | TGI (MALME-3M melanoma): 64.2 µM | TGI (A549 NSCLC): > 100 µM | TGI (COLO 205 colon): 31.7 µM | TGI (SN12C renal): 64.6 µM

CCOC(=O)C(=O)Nc1c(C)cccc1C(C)(C)C
TGI (HOP-18 NSCLC): > 100 µM | TGI (NCI-H23 lung): > 100 µM | TGI (IGROV1 ovarian): > 100 µM | TGI (LXFL 529 NSCLC): > 100 µM | TGI (SNB-78 CNS): > 100 µM | TGI (HCC-2998 colon): > 100 µM | TGI (M19-MEL melanoma): > 100 µM | TGI (RPMI-8226 leukemia): > 100 µM | TGI (HCT-116 colon): > 100 µM | TGI (RXF 393 renal): > 100 µM | TGI (HOP-62 NSCLC): > 100 µM | TGI (M14 melanoma): > 100 µM | TGI (EKVX NSCLC): > 100 µM | TGI (KM12 colon): > 100 µM | TGI (SK-OV-3 ovarian): > 100 µM | TGI (SF-539 CNS): > 100 µM | TGI (SF-295 CNS): > 100 µM | TGI (OVCAR-8 ovarian): > 100 µM | TGI (OVCAR-3 ovarian): > 100 µM | TGI (SK-MEL-2 melanoma): > 100 µM | TGI (HOP-92 NSCLC): > 100 µM | TGI (LOX IMVI melanoma): > 100 µM | TGI (ACHN renal): > 100 µM | TGI (TK-10 renal): > 100 µM | TGI (DMS 114 small cell lung): > 100 µM | TGI (HT29 colon): > 100 µM | TGI (OVCAR-5 ovarian): > 100 µM | TGI (SNB-75 CNS): > 100 µM | TGI (SK-MEL-28 melanoma): > 100 µM | TGI (KM20L2 colon): > 100 µM | TGI (SW-620 colon): > 100 µM | TGI (NCI-H226 lung): > 100 µM | TGI (NCI-H460 lung): > 100 µM | TGI (SF-268 CNS): > 100 µM | TGI (K-562 leukemia): > 100 µM | TGI (786-0 renal): > 100 µM | TGI (MOLT-4 leukemia): > 100 µM | TGI (UACC-257 melanoma): > 100 µM | TGI (SK-MEL-5 melanoma): > 100 µM | TGI (U251 CNS): > 100 µM | TGI (RXF-631 renal): > 100 µM | TGI (HCT-15 colon): > 100 µM | TGI (UO-31 renal): > 100 µM | TGI (UACC-62 melanoma): > 100 µM | TGI (DMS 273 small cell lung): > 100 µM | TGI (OVCAR-4 ovarian): > 100 µM | TGI (SNB-19 CNS): > 100 µM | TGI (XF 498 CNS): > 100 µM | TGI (CAKI-1 renal): > 100 µM | TGI (NCI-H522 lung): > 100 µM | TGI (MALME-3M melanoma): > 100 µM | TGI (COLO 205 colon): > 100 µM | TGI (SN12C renal): > 100 µM

O=C1C(Cl)=C(Cl)C(=O)N1c1ccc(F)cc1
TGI (HOP-18 NSCLC): 43.1 µM | TGI (NCI-H23 lung): 36.9 µM | TGI (IGROV1 ovarian): 43.6 µM | TGI (DU-145 prostate): > 100 µM | TGI (LXFL 529 NSCLC): 32.1 µM | TGI (SNB-78 CNS): 71.3 µM | TGI (HCC-2998 colon): 48.1 µM | TGI (M19-MEL melanoma): 41.8 µM | TGI (RPMI-8226 leukemia): 59.7 µM | TGI (HCT-116 colon): > 54.5 µM | TGI (RXF 393 renal): 38.5 µM | TGI (HOP-62 NSCLC): 98.7 µM | TGI (M14 melanoma): 39.5 µM | TGI (EKVX NSCLC): 40.6 µM | TGI (KM12 colon): 50.2 µM | TGI (SK-OV-3 ovarian): > 69.2 µM | TGI (SF-539 CNS): 51.9 µM | TGI (SF-295 CNS): > 100 µM | TGI (OVCAR-8 ovarian): 45.1 µM | TGI (OVCAR-3 ovarian): 32.4 µM | TGI (SK-MEL-2 melanoma): > 72.8 µM | TGI (DLD-1 colon): 41 µM | TGI (HOP-92 NSCLC): 35.8 µM | TGI (LOX IMVI melanoma): 32.6 µM | TGI (ACHN renal): 36.3 µM | TGI (TK-10 renal): 35.1 µM | TGI (DMS 114 small cell lung): 39.4 µM | TGI (HT29 colon): 49.8 µM | TGI (OVCAR-5 ovarian): 41 µM | TGI (SNB-75 CNS): 20.8 µM | TGI (SK-MEL-28 melanoma): 37.1 µM | TGI (KM20L2 colon): 52.8 µM | TGI (BT-549 breast): 30.1 µM | TGI (SW-620 colon): 34.1 µM | TGI (NCI-H226 lung): > 77.7 µM | TGI (HL-60(TB) leukemia): 11.5 µM | TGI (NCI-H460 lung): > 100 µM | TGI (MDA-N): 48.7 µM | TGI (SF-268 CNS): > 77.3 µM | TGI (K-562 leukemia): > 51.1 µM | TGI (786-0 renal): 31 µM | TGI (PC-3 prostate): 29.8 µM | TGI (SR leukemia): 47.2 µM | TGI (MOLT-4 leukemia): 34.8 µM | TGI (MDA-MB-435): 34.9 µM | TGI (UACC-257 melanoma): > 100 µM | TGI (SK-MEL-5 melanoma): > 67.9 µM | TGI (HS 578T breast): 55.4 µM | TGI (U251 CNS): 53.2 µM | TGI (A498 renal): > 100 µM | TGI (RXF-631 renal): > 72.6 µM | TGI (CCRF-CEM leukemia): 16.5 µM | TGI (HCT-15 colon): 34 µM | TGI (UO-31 renal): 48.8 µM | TGI (UACC-62 melanoma): 31.7 µM | TGI (DMS 273 small cell lung): > 62 µM | TGI (T-47D breast): 51.2 µM | TGI (MCF7 breast): 42.9 µM | TGI (OVCAR-4 ovarian): 23.8 µM | TGI (SNB-19 CNS): > 73.2 µM | TGI (XF 498 CNS): 34.9 µM | TGI (CAKI-1 renal): 21 µM | TGI (NCI-H522 lung): 5.95 µM | TGI (MALME-3M melanoma): 32.5 µM | TGI (MDA-MB-231 breast): 33 µM | TGI (A549 NSCLC): > 100 µM | TGI (COLO 205 colon): 35.1 µM | TGI (SN12C renal): 34.9 µM
